Target: T1, 5-HT2c binding site (Rattus norvegicus, UniProt P08909)
T1 construct: ability to displace [^3H]-mesulergine in the rat prefrontal cortex; from tissue; host or cells: rat prefrontal cortex membrane suspension
T1 sequence (P08909 33-460): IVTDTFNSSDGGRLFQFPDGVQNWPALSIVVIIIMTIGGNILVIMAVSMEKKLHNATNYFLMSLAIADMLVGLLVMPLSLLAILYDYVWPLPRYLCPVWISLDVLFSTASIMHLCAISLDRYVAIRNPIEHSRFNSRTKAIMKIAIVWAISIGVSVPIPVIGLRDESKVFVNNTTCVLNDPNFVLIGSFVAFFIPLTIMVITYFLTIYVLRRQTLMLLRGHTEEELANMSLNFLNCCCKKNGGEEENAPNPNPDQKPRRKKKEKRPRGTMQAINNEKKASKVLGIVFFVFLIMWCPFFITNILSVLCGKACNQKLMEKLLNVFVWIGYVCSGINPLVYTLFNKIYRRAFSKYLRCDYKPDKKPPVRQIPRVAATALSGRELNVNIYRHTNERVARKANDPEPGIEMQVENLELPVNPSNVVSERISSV
Assay: [3H]-mesulergine binding
Settings: test drug 10^−6M; displacement of [3H]-mesulergine (1 nM) in rat prefrontal cortex membranes; 30 nM spiperone present
Description: [^3H]-mesulergine Binding
The affinity of test drugs for the 5-HT2c binding site can be determined by assessing their ability to displace [^3H]-mesulergine in the rat prefrontal cortex. The method employed was similar to that of Pazos et al, 1984.
The membrane suspension (500 μl) was incubated with [^3H]-mesulergine (1 nM) in Tris hydrochloric acid buffer solution (pH 7.4) containing calcium chloride 4 mM and ascorbic acid 0.1% at 37° C. for 30 minutes. Non-specific binding was measured in the presence of mianserin (1 μM). 30 nM spiperone was used to prevent binding to 5-HT2A sites. Test drugs (10^−6M) were added in a volume of 100 μl. The total assay volume was 1000 μl. Incubation was stopped by rapid filtration using a Brandel cell harvester and radioactivity measured by scintillation counting.

Row | inhibition at 1 µM | Compound
1 | 82% | O=C(C/C=C/c1ccccc1)Nc1cccc(-n2ccnc2)c1 [Compound (a), (3E)-N-[3-(imidazol-1-yl)phenyl]-4-phenyl-3-butenamide]

System: not given
Assay: not given
Settings: not given

Row | melting point | Compound
2 | 130 to 133 °C | O=C(C/C=C/c1ccccc1)Nc1cccc(-n2ccnc2)c1 [Compound (a), (3E)-N-[3-(imidazol-1-yl)phenyl]-4-phenyl-3-butenamide]
3 | 262 to 264 °C | N=C(Nc1cccc(NC(=O)/C=C/c2ccccc2Cl)c1)c1ccccc1 [Example 54, (2E)-N-[3-(iminobenzylamino)phenyl]-3-(2-chlorophenyl)-2-propenamide]
4 | 121 to 123 °C | N=C(Nc1cc(Cl)cc(NC(=O)/C=C/c2ccccc2C(F)(F)F)c1)c1ccsc1 [Example 56, (2E)-N-[3-chloro-5-[[imino(3-thienyl)methyl]amino]phenyl]-3-[2-(trifluoromethyl)phenyl]-2-propenamide]
5 | 152 to 154 °C | O=C(C=Cc1ccccc1Cl)Nc1cccc(-c2nc3ccccc3[nH]2)c1 [Example 58, N-[3-(1H-benzimidazol-2-yl)phenyl]-3-(2-chlorophenyl)-2-propenamide]
6 | 105 to 107 °C | Cc1ncccc1Oc1ccc(C(=N)Nc2cc(Cl)cc(NC(=O)C=Cc3ccccc3Cl)c2)cc1 [Example 59, N-[3-chloro-5-[[imino[4-[(2-methyl-3-pyridyl)oxy]phenyl]methyl]amino]phenyl]-3-(2-chlorophenyl)-2-propenamide]
7 | 185 to 187 °C | N=C(Nc1cccc(NC(=O)/C=C/c2ccccc2C(F)(F)F)c1F)c1ccccc1 [Example 61, (2E)-N-[3-(iminobenzylamino)-2-fluorophenyl]-3-[2-(trifluoromethyl)phenyl]-2-propenamide]
8 | 208 to 209 °C | N=C(Nc1ccc(F)c(NC(=O)/C=C/c2ccccc2C(F)(F)F)c1)c1cccs1 [Example 62, (2E)-N-[2-fluoro-5-[[imino(2-thienyl)methyl]amino]phenyl]-3-[2-(trifluoromethyl)phenyl]-2-propenamide]
9 | 114 to 119 °C | Cc1ncccc1Oc1ccc(C(=N)Nc2cc(Cl)cc(NC(=O)C=Cc3ccccc3C(F)(F)F)c2)cc1 [Example 64, N-[3-chloro-5-[[imino[4-[(2-methyl-3-pyridyl)oxy]phenyl]methyl]amino]phenyl]-3-[2-(trifluoromethyl)phenyl]-2-propenamide]
10 | 220 to 221 °C | N#Cc1ccccc1/C=C/C(=O)Nc1cc(Cl)cc(NC(=N)c2ccccc2)c1 [Example 67, (2E)-N-[3-chloro-5-(iminobenzylamino)phenyl]-3-(2-cyanophenyl)-2-propenamide]
11 | 103 to 105 °C | N=C(Nc1cc(F)cc(NC(=O)/C=C/c2ccccc2C(F)(F)F)c1)c1ccccc1 [Example 137, (2E)-N-[3-fluoro-5-(iminobenzylamino)phenyl]-3-(2-trifluoromethylphenyl)-2-propenamide]
12 | 186 to 187 °C | N=C(Nc1cc(Cl)cc(NC(=O)/C=C/c2ccccc2F)c1)c1ccccc1 [Example 138, (2E)-N-[3-chloro-5-(iminobenzylamino)phenyl]-3-(2-fluorophenyl)-2-propenamide]
13 | 220 to 222 °C | Cc1ccc(NC(=N)c2ccccc2)cc1NC(=O)/C=C/c1ccccc1C(F)(F)F [Example 139, (2E)-N-[5 (iminobenzylamino)-2-methylphenyl]-3-(2-trifluoromethylphenyl)-2-propenamide]
14 | 208 to 210 °C | COc1ccc(NC(=N)c2ccccc2)cc1NC(=O)/C=C/c1ccccc1C(F)(F)F [Example 140, (2E)-N-[5-(iminobenzylamino)-2-methoxyphenyl]-3-(2-trifluoromethylphenyl)-2-propenamide]
15 | 198 to 199 °C | N=C(Nc1ccc(Cl)c(NC(=O)/C=C/c2ccccc2C(F)(F)F)c1)c1ccccc1 [Example 141, (2E)-N-[2-chloro-5-(iminobenzylamino)phenyl]-3-(2-trifluoromethylphenyl)-2-propenamide]
16 | 99 to 101 °C | N=C(Nc1cc(Cl)cc(NC(=O)/C=C/c2ccccc2Br)c1)c1ccccc1 [Example 142, (2E)-N-[3-chloro-5-(iminobenzylamino)phenyl]-3-(2-bromophenyl)-2-propenamide]
17 | 112 to 116 °C | Cc1ccc(NC(=O)/C=C/c2ccccc2C(F)(F)F)cc1NC(=N)c1ccccc1 [Example 143, (2E)-N-[3-(iminobenzylamino)-4-methylphenyl]-3-(2-trifluoromethylphenyl)-2-propenamide]
18 | 213 to 214 °C | COc1ccc(NC(=O)/C=C/c2ccccc2C(F)(F)F)cc1NC(=N)c1ccccc1 [Example 144, (2E)-N-[3-(iminobenzylamino)-4-methoxyphenyl]-3-(2-trifluoromethylphenyl)-2-propenamide]
19 | 188 to 189 °C | N=C(Nc1cc(NC(=O)/C=C/c2ccccc2C(F)(F)F)ccc1Cl)c1ccccc1 [Example 145, (2E)-N-[4-chloro-3-(iminobenzylamino)phenyl]-3-(2-trifluoromethylphenyl)-2-propenamide]
20 | 150 to 155 °C | CS(=O)(=O)Nc1cc(NC(=N)c2ccccc2)cc(NC(=O)/C=C/c2ccccc2C(F)(F)F)c1 [Example 146, (2E)-N-[3 (iminobenzylamino)-5-(methylsulfonylamino)phenyl]-3-(2-trifluoromethylphenyl)-2-propenamide]
21 | 158 to 160 °C | CS(=O)(=O)Nc1ccc(C(=N)Nc2cc(Cl)cc(NC(=O)/C=C/c3ccccc3Cl)c2)cc1 [Example 147, (2E)-N-[3-chloro-5-[imino(4-methylsulfonylaminobenzyl)amino]phenyl]-3-(2-chlorophenyl)-2-propenamide]
22 | 209 to 210 °C | N=C(Nc1cc(Cl)cc(NC(=O)/C=C/c2ccccc2C(F)(F)F)c1)c1ccccc1F [Example 148, (2E)-N-[3-chloro-5-[imino(2-fluorobenzyl)amino]phenyl]-3-(2-trifluoromethylphenyl)-2-propenamide]
23 | 180 to 185 °C | CC(=O)Nc1ccc(C(=N)Nc2cc(NC(=O)/C=C/c3ccccc3C(F)(F)F)c(F)cc2F)cc1 [Example 152, (2E)-N-[2,4-difluoro-5-[imino(4-acetylaminobenzyl)amino]phenyl]-3-(2-trifluoromethylphenyl)-2-propenamide]
24 | 213 to 214 °C | N=C(Nc1cc(Cl)c(Cl)c(NC(=O)/C=C/c2ccccc2C(F)(F)F)c1)c1ccccc1 [Example 154, (2E)-N-[2,3-dichloro-5-(iminobenzylamino)phenyl]-3-(2-trifluoromethylphenyl)-2-propenamide]
25 | 133 to 135 °C | O=C(C=Cc1ccccc1Cl)Nc1cc(Cl)cc(Nc2noc3ccccc23)c1 [Example 186, N-[3-(1,2-benzisoxazol-3-ylamino)-5-chlorophenyl]-2-chlorocinnamamide]
26 | 184 to 187 °C | N=C(Nc1cc(Cl)cc(NC(=O)/C=C/c2c[nH]c3ccccc23)c1)c1ccccc1 [Example 205, (2E)-N-[3-chloro-5-[[imino(phenyl)methyl]amino]phenyl]-3-(1H-indole-3-yl)-2-propenamide]
